Results taken from PubChem BioAssay AID1918944 (Molecular Pharmacology Branch, DTP, NCI, 2023).

Test system: 786-0 complex spheroid viability
Test: Anticancer human tumor 786-0 cell line growth inhibition;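 note: spheroids exposed to agents for seven days before readout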
Settings: for IC50: curve of first compound; for viability, T/C: stronger effect = lower value
Summary of the method: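 Drug combinations with the LSD1 inhibitor iadademstat tested on tumor cells co-cultured as spheroids with endothelial cells and mesenchymal stem cells. Concentrations descended in half-log increments from clinical Cmax or 10 microM.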

[1] = second compound 0.1 µM, first compound 0.000316 µM
[2] = second compound 0.1 µM, first compound 0.001 µM
[3] = second compound 0.1 µM, first compound 0.00316 µM
[4] = second compound 0.1 µM, first compound 0.01 µM
[5] = second compound 0.1 µM, first compound 0.0316 µM
[6] = second compound 0.1 µM, first compound 0.1 µM
[7] = second compound 0.316 µM, first compound 0.000316 µM
[8] = second compound 0.316 µM, first compound 0.001 µM
[9] = second compound 0.316 µM, first compound 0.00316 µM
[10] = second compound 0.316 µM, first compound 0.01 µM
[11] = second compound 0.316 µM, first compound 0.0316 µM
[12] = second compound 0.316 µM, first compound 0.1 µM
[13] = second compound 1 µM, first compound 0.000316 µM
[14] = second compound 1 µM, first compound 0.001 µM
[15] = second compound 1 µM, first compound 0.00316 µM
[16] = second compound 1 µM, first compound 0.01 µM
[17] = second compound 1 µM, first compound 0.0316 µM
[18] = second compound 1 µM, first compound 0.1 µM
[19] = second compound 3.16 µM, first compound 0.000316 µM
[20] = second compound 3.16 µM, first compound 0.001 µM
[21] = second compound 3.16 µM, first compound 0.00316 µM
[22] = second compound 3.16 µM, first compound 0.01 µM
[23] = second compound 3.16 µM, first compound 0.0316 µM
[24] = second compound 3.16 µM, first compound 0.1 µM
[25] = second compound 10 µM, first compound 0.000316 µM
[26] = second compound 10 µM, first compound 0.001 µM
[27] = second compound 10 µM, first compound 0.00316 µM
[28] = second compound 10 µM, first compound 0.01 µM
[29] = second compound 10 µM, first compound 0.0316 µM
[30] = second compound 10 µM, first compound 0.1 µM

CC[C@@]1(O)C(=O)OCc2c1cc1n(c2=O)Cc2cc3c(CN(C)C)c(O)ccc3nc2-1 + NC1CC1c1ccc(-c2cccc(O)c2)cc1
IC50 (second compound 0.1 µM): 5.02 nM | IC50 (second compound 0.316 µM): 4.87 nM | IC50 (second compound 1 µM): 4.86 nM | IC50 (second compound 3.16 µM): 4.67 nM | IC50 (second compound 10 µM): 4.02 nM | viability, T/C [1]: 112% | viability, T/C [2]: 109% | viability, T/C [3]: 74.6% | viability, T/C [4]: 13.2% | viability, T/C [5]: 6.23% | viability, T/C [6]: 2.94% | viability, T/C [7]: 109% | viability, T/C [8]: 105% | viability, T/C [9]: 73.6% | viability, T/C [10]: 10.7% | viability, T/C [11]: 4.65% | viability, T/C [12]: 3.46% | viability, T/C [13]: 119% | viability, T/C [14]: 109% | viability, T/C [15]: 73.4% | viability, T/C [16]: 10.8% | viability, T/C [17]: 4.54% | viability, T/C [18]: 2.99% | viability, T/C [19]: 107% | viability, T/C [20]: 107% | viability, T/C [21]: 70% | viability, T/C [22]: 10.8% | viability, T/C [23]: 5.39% | viability, T/C [24]: 2.22% | viability, T/C [25]: 104% | viability, T/C [26]: 109% | viability, T/C [27]: 61% | viability, T/C [28]: 8.93% | viability, T/C [29]: 3.25% | viability, T/C [30]: 2.9%

CCc1c2c(nc3ccc(O)cc13)-c1cc3c(c(=O)n1C2)COC(=O)[C@]3(O)CC + NC1CC1c1ccc(-c2cccc(O)c2)cc1
IC50 (second compound 0.1 µM): < 0.949 nM | IC50 (second compound 0.316 µM): < 0.949 nM | IC50 (second compound 1 µM): < 0.949 nM | IC50 (second compound 3.16 µM): < 0.949 nM | IC50 (second compound 10 µM): < 0.949 nM | viability, T/C (second compound 0.1 µM, first compound 0.000949 µM): 4.23% | viability, T/C (second compound 0.1 µM, first compound 0.003 µM): 4.35% | viability, T/C (second compound 0.1 µM, first compound 0.00949 µM): 4.15% | viability, T/C (second compound 0.1 µM, first compound 0.03 µM): 6.01% | viability, T/C (second compound 0.1 µM, first compound 0.0949 µM): 8.35% | viability, T/C (second compound 0.1 µM, first compound 0.3 µM): 9.73% | viability, T/C (second compound 0.316 µM, first compound 0.000949 µM): 4.4% | viability, T/C (second compound 0.316 µM, first compound 0.003 µM): 3.22% | viability, T/C (second compound 0.316 µM, first compound 0.00949 µM): 4.02% | viability, T/C (second compound 0.316 µM, first compound 0.03 µM): 6.1% | viability, T/C (second compound 0.316 µM, first compound 0.0949 µM): 8.62% | viability, T/C (second compound 0.316 µM, first compound 0.3 µM): 9.44% | viability, T/C (second compound 1 µM, first compound 0.000949 µM): 3.72% | viability, T/C (second compound 1 µM, first compound 0.003 µM): 3.14% | viability, T/C (second compound 1 µM, first compound 0.00949 µM): 4.57% | viability, T/C (second compound 1 µM, first compound 0.03 µM): 6.53% | viability, T/C (second compound 1 µM, first compound 0.0949 µM): 7.76% | viability, T/C (second compound 1 µM, first compound 0.3 µM): 8.97% | viability, T/C (second compound 3.16 µM, first compound 0.000949 µM): 4.08% | viability, T/C (second compound 3.16 µM, first compound 0.003 µM): 3.82% | viability, T/C (second compound 3.16 µM, first compound 0.00949 µM): 4.22% | viability, T/C (second compound 3.16 µM, first compound 0.03 µM): 6.42% | viability, T/C (second compound 3.16 µM, first compound 0.0949 µM): 7.92% | viability, T/C (second compound 3.16 µM, first compound 0.3 µM): 7.63% | viability, T/C (second compound 10 µM, first compound 0.000949 µM): 3.29% | viability, T/C (second compound 10 µM, first compound 0.003 µM): 4.49% | viability, T/C (second compound 10 µM, first compound 0.00949 µM): 5.68% | viability, T/C (second compound 10 µM, first compound 0.03 µM): 8.54% | viability, T/C (second compound 10 µM, first compound 0.0949 µM): 9.57% | viability, T/C (second compound 10 µM, first compound 0.3 µM): 9.08%

Cn1ncnc1C1c2n[nH]c(=O)c3cc(F)cc(c23)NC1c1ccc(F)cc1 (stereo not given) + NC1CC1c1ccc(-c2cccc(O)c2)cc1
IC50 (second compound 0.1 µM): > 100 nM | IC50 (second compound 0.316 µM): > 100 nM | IC50 (second compound 1 µM): > 100 nM | IC50 (second compound 3.16 µM): > 100 nM | IC50 (second compound 10 µM): > 100 nM | viability, T/C [1]: 95.4% | viability, T/C [2]: 94.4% | viability, T/C [3]: 95% | viability, T/C [4]: 91.9% | viability, T/C [5]: 92.4% | viability, T/C [6]: 89.3% | viability, T/C [7]: 102% | viability, T/C [8]: 102% | viability, T/C [9]: 101% | viability, T/C [10]: 91% | viability, T/C [11]: 94.3% | viability, T/C [12]: 95.9% | viability, T/C [13]: 93.3% | viability, T/C [14]: 94.5% | viability, T/C [15]: 90.6% | viability, T/C [16]: 86.9% | viability, T/C [17]: 81.5% | viability, T/C [18]: 85% | viability, T/C [19]: 88.4% | viability, T/C [20]: 92.1% | viability, T/C [21]: 90.9% | viability, T/C [22]: 87.8% | viability, T/C [23]: 85.2% | viability, T/C [24]: 76.4% | viability, T/C [25]: 80.7% | viability, T/C [26]: 87% | viability, T/C [27]: 84.3% | viability, T/C [28]: 83.2% | viability, T/C [29]: 79.8% | viability, T/C [30]: 74.5%
